Measured values as given in ChEMBL document CHEMBL4270577, “Synthesis, anticancer activity and molecular modeling studies of 1,2,4-triazole derivatives as EGFR inhibitors” (Eur J Med Chem, 2018).

Experiments:
[1] = test system: SR; assay: Growth inhibition of human SR cells at 10 uM incubated for 48 hrs by sulforhodamine B assay relative to control; assay type: functional; conditions: read-out: GI
[2] = test system: NCI-H460; assay: Growth inhibition of human NCI-H460 cells at 10 uM incubated for 48 hrs by sulforhodamine B assay relative to control; assay type: functional; conditions: NCI-H460, 48 h, read-out: GI
[3] = test system: HCT-15; assay: Growth inhibition of human HCT15 cells at 10 uM incubated for 48 hrs by sulforhodamine B assay relative to control; assay type: functional; conditions: HCT-15, 48 h, read-out: GI
[4] = test system: T47D; assay: Cytotoxicity against human T47D cells incubated for 48 hrs by sulforhodamine B assay; assay type: functional
[5] = test system: PC-3; assay: Cytotoxicity against human PC3 cells incubated for 48 hrs by sulforhodamine B assay; assay type: functional; conditions: PC-3, 48 h
[6] = test system: UACC-257; assay: Growth inhibition of human UACC257 cells at 10 uM incubated for 48 hrs by sulforhodamine B assay relative to control; assay type: functional; conditions: UACC-257, 48 h, read-out: GI
[7] = test system: A549; assay: Induction of apoptosis in human A549 cells assessed as necrotic cells at 1.4 uM after 24 hrs by Annexin V/propidium iodide staining based flow cytometric analysis (reference value: 0.09%); assay type: functional
[8] = test system: SK-MEL-5; assay: Cytotoxicity against human SK-MEL-5 cells incubated for 48 hrs by sulforhodamine B assay; assay type: functional; conditions: SK-MEL-5, 48 h
[9] = test system: HT-29; assay: Cytotoxicity against human HT-29 cells incubated for 48 hrs by sulforhodamine B assay; assay type: functional; conditions: HT-29, 48 h
[10] = test system: HT-29; assay: Antiproliferative activity against human HT-29 cells after 48 hrs by propidium iodide staining-based fluorometric analysis; assay type: functional, cell-based; conditions: HT-29, 48 h
[11] = test system: SR; assay: Cytotoxicity against human SR cells incubated for 48 hrs by sulforhodamine B assay; assay type: functional
[12] = test system: OVCAR-3; assay: Growth inhibition of human OVCAR3 cells at 10 uM incubated for 48 hrs by sulforhodamine B assay relative to control; assay type: functional; conditions: OVCAR-3, 48 h, read-out: GI
[13] = test system: LOX IMVI; assay: Growth inhibition of human LOXIMVI cells at 10 uM incubated for 48 hrs by sulforhodamine B assay relative to control; assay type: functional; conditions: read-out: GI
[14] = test system: PC-3; assay: Growth inhibition of human PC3 cells at 10 uM incubated for 48 hrs by sulforhodamine B assay relative to control; assay type: functional; conditions: PC-3, 48 h, read-out: GI
[15] = test system: 786-0; assay: Growth inhibition of human 786-0 cells at 10 uM incubated for 48 hrs by sulforhodamine B assay relative to control; assay type: functional; conditions: 786-0, 48 h, read-out: GI
[16] = test system: UACC-62; assay: Growth inhibition of human UACC62 cells at 10 uM incubated for 48 hrs by sulforhodamine B assay relative to control; assay type: functional; conditions: UACC-62, 48 h, read-out: GI
[17] = test system: NCI/ADR-RES; assay: Growth inhibition of human NCI/ADR-RES cells at 10 uM incubated for 48 hrs by sulforhodamine B assay relative to control; assay type: functional; conditions: read-out: GI
[18] = test system: A549; assay: Induction of apoptosis in human A549 cells assessed as viable cells at 1.4 uM after 24 hrs by Annexin V/propidium iodide staining based flow cytometric analysis (reference value: 98.03%); assay type: functional; conditions: A549, 24 h, read-out: Activity
[19] = test system: SNB-75; assay: Growth inhibition of human SNB75 cells at 10 uM incubated for 48 hrs by sulforhodamine B assay relative to control; assay type: functional; conditions: SNB-75, 48 h, read-out: GI
[20] = test system: HOP-92; assay: Growth inhibition of human HOP92 cells at 10 uM incubated for 48 hrs by sulforhodamine B assay relative to control; assay type: functional; conditions: HOP-92, 48 h, read-out: GI
[21] = test system: TK-10; assay: Growth inhibition of human TK10 cells at 10 uM incubated for 48 hrs by sulforhodamine B assay relative to control; assay type: functional; conditions: TK-10, 48 h, read-out: GI
[22] = test system: HCC 2998; assay: Growth inhibition of human HCC2998 cells at 10 uM incubated for 48 hrs by sulforhodamine B assay relative to control; assay type: functional; conditions: HCC 2998, 48 h, read-out: GI
[23] = test system: SK-OV-3; assay: Cytotoxicity against human SKOV3 cells incubated for 48 hrs by sulforhodamine B assay; assay type: functional; conditions: SK-OV-3, 48 h
[24] = test system: Hs-578T; assay: Growth inhibition of human Hs 578T cells at 10 uM incubated for 48 hrs by sulforhodamine B assay relative to control; assay type: functional; conditions: read-out: GI
[25] = test system: A549; assay: Growth inhibition of human A549/ATCC cells at 10 uM incubated for 48 hrs by sulforhodamine B assay relative to control; assay type: functional; conditions: A549, 48 h, read-out: GI
[26] = test system: MIA PaCa-2; assay: Antiproliferative activity against human MIAPaCa2 cells after 48 hrs by propidium iodide staining-based fluorometric analysis; assay type: functional, cell-based; conditions: MIA PaCa-2, 48 h
[27] = test system: SF-268; assay: Growth inhibition of human SF268 cells at 10 uM incubated for 48 hrs by sulforhodamine B assay relative to control; assay type: functional; conditions: SF-268, 48 h, read-out: GI
[28] = test system: M14; assay: Growth inhibition of human M14 cells at 10 uM incubated for 48 hrs by sulforhodamine B assay relative to control; assay type: functional; conditions: M14, 48 h, read-out: GI
[29] = test system: NCI-H460; assay: Cytotoxicity against human NCI-H460 cells incubated for 48 hrs by sulforhodamine B assay; assay type: functional; conditions: NCI-H460, 48 h
[30] = test system: MDA-MB-468; assay: Growth inhibition of human MDA-MB-468 cells at 10 uM incubated for 48 hrs by sulforhodamine B assay relative to control; assay type: functional; conditions: MDA-MB-468, 48 h, read-out: GI
[31] = test system: UACC-257; assay: Cytotoxicity against human UACC257 cells incubated for 48 hrs by sulforhodamine B assay; assay type: functional; conditions: UACC-257, 48 h
[32] = test system: HOP-62; assay: Growth inhibition of human HOP62 cells at 10 uM incubated for 48 hrs by sulforhodamine B assay relative to control; assay type: functional; conditions: HOP-62, 48 h, read-out: GI
[33] = test system: UO-31; assay: Growth inhibition of human UO31 cells at 10 uM incubated for 48 hrs by sulforhodamine B assay relative to control; assay type: functional; conditions: UO-31, 48 h, read-out: GI
[34] = test system: SK-OV-3; assay: Growth inhibition of human SKOV3 cells at 10 uM incubated for 48 hrs by sulforhodamine B assay relative to control; assay type: functional; conditions: SK-OV-3, 48 h, read-out: GI
[35] = read-out: LC50 (the source's name)

## COc1ccc(-c2nc3sc(-c4ccc(Cl)cc4)cn3n2)cc1
[1]
  inhibition of growth at 10 µM: 48.9%
[2]
  inhibition of growth at 10 µM: -39%
[3]
  inhibition of growth at 10 µM: 28%
[4]
  GI50: 3.54 µM
  TGI: > 50 µM
[4]; [35]
  CC50: > 50 µM
[5]
  GI50: > 50 µM
  TGI: > 50 µM
[5]; [35]
  CC50: > 50 µM
[6]
  inhibition of growth at 10 µM: 15.4%
[7]
  Activity: 1.34%
[8]
  GI50: 14 µM
  TGI: > 50 µM
[8]; [35]
  CC50: > 50 µM
[9]
  GI50: 2.96 µM
  TGI: > 50 µM
[9]; [35]
  CC50: > 50 µM
[10]
  IC50: 2.4 µM
[11]
  GI50: 4.53 µM
  TGI: 26.1 µM
[11]; [35]
  CC50: > 50 µM
[12]
  inhibition of growth at 10 µM: 75.3%
[13]
  inhibition of growth at 10 µM: 45.8%
[14]
  inhibition of growth at 10 µM: 41.9%
[15]
  inhibition of growth at 10 µM: -75.8%
[16]
  inhibition of growth at 10 µM: 31.4%
[17]
  inhibition of growth at 10 µM: 54.4%
[18]
  viability at 1.4 µM: 88%
[19]
  inhibition of growth at 10 µM: -1.66%
[20]
  inhibition of growth at 10 µM: 79.5%
[21]
  inhibition of growth at 10 µM: -30.8%
[22]
  inhibition of growth at 10 µM: 21.4%
[23]
  GI50: 11.7 µM
  TGI: > 50 µM
[23]; [35]
  CC50: > 50 µM
[24]
  inhibition of growth at 10 µM: 73%
[25]
  inhibition of growth at 10 µM: -30%
[26]
  IC50: 2.6 µM
[27]
  inhibition of growth at 10 µM: 34.9%
[28]
  inhibition of growth at 10 µM: 9%
[29]
  GI50: 1.33 µM
  TGI: 4 µM
[29]; [35]
  CC50: 18.9 µM
[30]
  inhibition of growth at 10 µM: 66.6%
[31]
  GI50: > 50 µM
  TGI: > 50 µM
[31]; [35]
  CC50: > 50 µM
[32]
  inhibition of growth at 10 µM: 60.4%
[33]
  inhibition of growth at 10 µM: -7.46%
[34]
  inhibition of growth at 10 µM: 50.5%

## c1ccc(-c2nc3sc(-c4ccccc4)cn3n2)cc1
[1]
  inhibition of growth at 10 µM: 9%
[2]
  inhibition of growth at 10 µM: 6%
[3]
  inhibition of growth at 10 µM: 8%
[6]
  inhibition of growth at 10 µM: 13%
[10]
  IC50: 8.4 µM
[12]
  inhibition of growth at 10 µM: 16%
[13]
  inhibition of growth at 10 µM: 16%
[14]
  inhibition of growth at 10 µM: 37%
[16]
  inhibition of growth at 10 µM: 33%
[17]
  inhibition of growth at 10 µM: 14%
[19]
  inhibition of growth at 10 µM: 15%
[20]
  inhibition of growth at 10 µM: 25%
[24]
  inhibition of growth at 10 µM: 9%
[25]
  inhibition of growth at 10 µM: 10%
[26]
  IC50: 9.2 µM
[27]
  inhibition of growth at 10 µM: 7%
[28]
  inhibition of growth at 10 µM: 13%
[30]
  inhibition of growth at 10 µM: 14%
[32]
  inhibition of growth at 10 µM: 33%
[33]
  inhibition of growth at 10 µM: 53%
[34]
  inhibition of growth at 10 µM: 5%
